Assay results as given in patent publication US11440908B2, “Crystalline forms of dasatinib” (Johnson Matthey Public Limited Company, priority 2018, dated 2022).

Key:
Assay type in all cases: physicochemical
[1] = Retention of solid form after drying under vacuum; details: dried under vacuum at about 45° C. overnight (about 18-20 h)
Experimental: (§1) About 120 mg of dasatinib is dispensed in about 1 mL of ethyl formate and stirred at temperatures of about 15° C. or about 45° C. for about 24 h. The slurries that are obtained at either of two temperatures are filtered, to yield Form I of ethyl formate solvate of dasatinib.

[2] = Retention of solid form under high humidity conditions; details: about ≥95% relative humidity (RH) overnight (about 18-20 h), dried material
Experimental: as §1

[3] = Moisture uptake on exposure to 0-95% RH; details: exposed to 0-95% RH
[4] = Storage stability at controlled temperature/relative humidity

Question: Which results are given for `Cc1nc(Nc2ncc(C(=O)Nc3c(C)cccc3Cl)s2)cc(N2CCN(CCO)CC2)n1` [dasatinib]?
Answer: solid form after drying under vacuum [1]: retains its form; solid form after exposure to high humidity [2]: retains its form; moisture uptake [3]: < 1%; stability on storage ([4]; 25° C./97% RH): stable up to 5 months; stability on storage ([4]; 40° C./75% RH): stable up to 5 months
